Measurements as given in US6569638B1, “Method for screening compounds for the treatment of neoplasia” (Cell Pathways, Inc, priority 2000, dated 2003).

Tests used:
[1] = test system: JNK1 in SW480 colon cancer cells; experiment: JNK1 immunoprecipitation in vitro kinase assay with GST-c-Jun(1-79); type: cell-based, human; details: SW480 cells
Protocol: The cells were lysed, JNK1 immunoprecipitated with an anti-JNK1 antibody, and the immunoprecipitate (“IP”) assayed for in vitro kinase activity with GST-c-Jun(1-79) as the substrate. The experiments were repeated three times with similar results. Fold activation was measured using a Phosphor Imager.
FIG. 1B: SW480 cells were treated with Compound A (1 μM) for the indicated time periods and in vitro JNK1 kinase activity was determined as described above.
FIG. 2A SW480 cells were treated with either DMSO (−) or Compound A, 0.1 μM; dbcGMP, 500 μM; YC-1, 50 μM; MY-5445, 50 μM; dipyridamole, 10 μM or dbcAMP, 500 μM for one hour. The cells were lysed, JNK1 immunoprecipitated, and the IP assayed for in vitro kinase activity as described in FIG. 1A.
FIG. 2B SW480 cells were pre-treated with either DMSO, KT5720 (2 μM) or Rp-8-pCPT-cGMPS (2 μM) for 2 hours and then treated with Compound B (0, 1 or 10 μM) for one hour. The cells were lysed and assayed for JNK1 activation in the IP as described above.
These concentrations were chosen since they provided optimal induction of apoptosis. Endogenous JNK1 was immunoprecipitated with anti-JNK1 antibody and in vitro kinase assays were performed with GST-c-Jun(1-79) as the substrate. […]
However, the precise role of PKG in signal transduction pathways is not known. […] As a control, KT5720 was used as a protein kinase A (“PKA”)-specific inhibitor. SW480 cells were treated with either DMSO, KT5720 (2 μM) or Rp-8-pCPT-cGMPS (2 μM) for 2 hours and then treated with either DMSO or Compound B (1 or 10 μM) for one hour. Cell extracts were collected and assayed for JNK1 activation.

caspase-3 in SW480 cells = experiment: Caspase-3 activity with Ac-DEVD-AFC substrate; type: cell-based, human; details: 24 hours, sulindac sulfide 200 μM, exisulind 600 μM, Compound A 1 μM, Compound B 10 μM
Protocol: The cells were lysed and the extracts assayed for caspase-3 activity using Ac-DEVD-AFC as the substrate, in the presence or absence of the caspase-3 inhibitor Ac-DEVD-CHO. Caspase-3 activity was calculated by subtracting the AFC fluorescence (excitation; 400 nm, emission; 505 nm) in the presence of Ac-DEVD-CHO from the AFC fluorescence in the absence of Ac-DEVD-CHO.
Protein extracts were then prepared and caspase-3 activity was measured with Ac-DEVD-AFC as the substrate, in the presence or absence of the caspase-3 inhibitor Ac-DEVD-CHO. […] Similar findings were obtained with HCT116 and HT29 cells (data not shown).

MEKK1 in SW480 cells = experiment: MEKK1 cleavage and activation (Western blot, autophosphorylation); type: cell-based, human
Protocol: FIG. 3B: SW480 cells were treated with Compound A (1 μM) and collected after either 1 or 2 days and the cell lysates were assayed for MEKK1 cleavage by Western blotting with anti-MEKK1 antibody. Minus (−) indicates DMSO treated control cells.
We then examined the effect of a SAAND on MEKK1, a protein kinase immediately upstream of SEK1. […] Previous studies indicate that MEKK1 is cleaved during activation by caspases (19). […] It is not clear, however, whether cGMP-activated PKG directly activates MEKK1 or whether the cleavage and activation of MEKK1 is an indirect effect of the process of apoptosis.

PDE 5 (i.e., peak A) = PDE 5 (i.e., peak A) (Homo sapiens, UniProt O76074); experiment: Competitive binding with cGMP; details: PDE 5 (peak A)
PARP in SW480 cells = experiment: PARP cleavage by Western blot; type: cell-based, human; details: SW480 cells, Compound A 1 μM, 2 days
Protocol: SW480 cells were pre-treated with either DMSO (−) or Rp-8-pCPT-cGMPS (2 μM) for 2 hours and then treated with either DMSO (−) or Compound A (1 μM). Both the floating and attached cells were collected after 2 days, and the cell lysates were assayed for PARP cleavage by Western blotting with anti-PARP antibody. Fold increase in PARP cleavage was measured by densitometry of the 85 kD fragment.
Finally, we investigated whether activation of the PKG pathway is required for the induction of apoptosis by SAANDs. SW480 cells were treated with either DMSO or the PKG inhibitor Rp-8-pCPT-cGMPS (2 μM) for 2 hours and then the cells were treated with either DMSO or Compound A (1 μM) for 2 days. Both the floating and attached cells were collected, and the cell lysates were assayed for poly (ADP-ribose) polymerase (PARP) cleavage by Western blotting with an anti-PARP antibody. PARP is a 116 kD nuclear enzyme that converts NAD to nicotinamide and protein-linked ADP-ribose polymers, which are important for DNA repair and genomic maintenance. In cells that are undergoing apoptosis the 116 kD PARP protein is cleaved by caspase-3 into 85 and 25 kD fragments, thus resulting in loss of normal PARP function. This inactivation of PARP apparently prevents depletion of cellular levels of NAD and ATP, which are thought to be required for later events in apoptosis.

SEK1 in SW480 cells = experiment: SEK1 phosphorylation by Western blot (anti-phospho-SEK1 Thr223); type: cell-based, human; details: Compound A 1 μM
Protocol: FIG. 3A: SW480 cells were treated with Compound A (1 μM), collected at the indicated time points, and cell lysates assayed for SEK1 activation by Western blotting with anti-phospho-SEK1 (Thr223) antibody. Fold increase in phosphorylation was measured by densitometry. The experiment was repeated three times with similar results.
To further characterize the signal transduction pathway involved in the above-described JNK1 activation, we tested whether SEK1, the protein kinase immediately upstream of JNK1, was also activated by a SAAND. Activation of SEK1 occurs through phosphorylation of two residues of this protein, Ser219 and Thr223, by the protein kinase MEKK1. SW480 cells were treated with Compound A (1 μM) for various times, up to 6 hours, and extracts were analyzed by Western blot analysis using a phospho-Thr223-specific SEK1 antibody. The treatment with Compound A induced increased phosphorylation of SEK1, within 15-30 minutes, without changing the total cellular level of the endogenous SEK1 protein (see, FIG. 3A). By 1 hour there was a 9-fold induction, and this effect persisted for at least 6 hours (FIG. 3A).

PDE peak B = experiment: Competitive binding with cGMP
[2] = molecular target: T1, GST-cGB-PDE5 fusion protein (cGMP binding sites of human PDE5A) (Homo sapiens, UniProt O76074); experiment: cGMP binding assay (3H-cGMP competition); details: 3H-cGMP 2 μM, 22° C., 1 hour
T1 construct: made in house; host or cells: E. coli BL21 (DE3)

Compound: COc1cc(/C=C2/C(C)=C(CC(=O)NCc3ccccc3)c3cc(F)ccc32)cc(OC)c1OC [Compound A, (Z)-5-fluoro-2-methyl-(3,4,5-trimethyl-oxybenzylidene)-3-(N-benzyl)-indenylacetamide]
- duration of sustained JNK1 activation ([1]; Compound A 1 μM, time course): at least 24 hours
- JNK1 activation ([1]; one hour, sulindac sulfide 50-500 μM, exisulind 100-600 μM, Compound A 0.1-5 μM, Compound B 1-50 μM): activated JNK1
- caspase-3 activation (caspase-3 in SW480 cells): led to activation of caspase-3
- MEKK1 activity (autophosphorylation and phosphorylation of GST-SEK1) (MEKK1 in SW480 cells): strong and transient activation of MEKK1 activity
- MEKK1 cleavage (MEKK1 in SW480 cells; Compound A 1 μM, one or two days): cleavage of this protein
- competitive binding with cGMP (PDE 5 (i.e., peak A)): competitively (with cGMP) bind
- PARP cleavage (PARP in SW480 cells): induced PARP cleavage
- persistence of SEK1 phosphorylation (SEK1 in SW480 cells): at least 6 hours
- time to increased phosphorylation of SEK1 (SEK1 in SW480 cells): 15 to 30 min
- induction of SEK1 phosphorylation (SEK1 in SW480 cells; by 1 hour): 9 fold
- competitive binding with cGMP (PDE peak B): competitively (with cGMP) binds
- competition with cGMP for the cGMP binding sites of GST-cGB-PDE5 [2]: None of the PDE5 inhibitors showed any competition with cGMP
